Data reported in patent publication US20060089395A1, “Nf-kb activation inhibitors” (priority 2002, published 2006).
Where two headings read alike, the source gives them in different places.

Test system: NF-κ B
Test: Inhibitory activity of NF-κ B activation, luciferase reporter assay in HepG2 under TNF-α stimulation
Assay type: cell-based, human
Details: for inhibition at 0.1 µg/mL / inhibition at 1 µg/mL / inhibition at 10 µg/mL: Homo sapiens; for inhibition at 0.1 µg/mL: 0.1 μg/ml, read-out: Inhibitory Ratio of NF-κB Activation (%) 0.1 μg/ml
Description: Using a transfection reagent(Effectene; QIAGEN), the human hepatoma cell strain HepG2 was transfected with a plasmid(pNF κ B-Luc Reporter Plasmid; […]) which is integrated with an oligonucleotide having five tandem copies of NF-κ B binding sequences([…]) on a upstream region of firefly luciferase gene(Luc) according to the QIAGEN's protocol, and the cells were incubated for 6 to 24 hours. After the addition of TNF-α (40 ng/ml) in the presence or absence of a test compound, the cells were incubated for 4 hours, and intracellular luciferase activity was measured by using PicaGene LT (TOYO INK MFG Co., Ltd.) and a chemical luminescence measurement apparatus ([…]luor Plus; TECAN). The inhibitory ratio was measured as a ratio relative to the value of a luciferase activity in the absence of the test compound.

[1] = HepG2, 4 h, comparison table, reporter assay
[2] = HepG2, 4 h, 1 μg/ml, comparison table, reporter assay, read-out: Inhibitory Ratio of NF-κB Activation (%) 1 μg/ml
[3] = HepG2, 4 h, 10 μg/ml, comparison table, reporter assay, read-out: Inhibitory Ratio of NF-κB Activation (%) 10 μg/ml
[4] = 1 μg/mL, HepG2, TNF-α (40 ng/ml), 4 hours, read-out: Inhibitory Ratio of NF-κ B Activation(%) Drug Concentration 1 μg/mL
[5] = 10 μg/mL, HepG2, TNF-α (40 ng/ml), 4 hours, read-out: Inhibitory Ratio of NF-κ B Activation(%) Drug Concentration 10 μg/mL
[6] = 1 μg/mL, HepG2, TNF-α (40 ng/ml), 4 hours
[7] = 10 μg/mL, HepG2, TNF-α (40 ng/ml), 4 hours

Row | SMILES | Inhibitory Ratio of NF-κ B Activation(%) Drug Concentration 1 μg/mL [6] [%] | Inhibitory Ratio of NF-κ B Activation(%) Drug Concentration 10 μg/mL [7] [%] | further results
1 | O=C(Nc1ccc(F)cc1F)c1cc([N+](=O)[O-])ccc1O [drawing 559, reference compound] | – | – | inhibition at 0.1 µg/mL [1]: -82.9%; inhibition at 1 µg/mL [2]: -63.8%; inhibition at 10 µg/mL [3]: 86.5%
2 | CCOC(=O)c1sc(NC(=O)c2cc(-c3cccs3)ccc2O)nc1-c1ccccc1 [Compound No. 230, 2-[2-Hydroxy-5-(2-thienyl)benzoyl]amino-4-phenylthiazole-5-carboxylic acid ethyl ester] | – | – | inhibition at 1 µg/mL [4]: 40.8%; inhibition at 10 µg/mL [5]: 84.8%
3 | COC(=O)c1cc(NC(=O)c2cc(Br)ccc2O)cc(C(=O)OC)c1 [Compound No. 144, 5-bromo-2-hydroxy-N-[3,5-bis(methoxycarbonyl)phenyl]benzamide] | – | – | inhibition at 10 µg/mL [5]: 56.4%
4 | CCc1nc(NC(=O)c2cc(Br)ccc2O)sc1-c1ccccc1 [Compound No. 196] | 28.8 | 87.6 | –
5 | O=C(Nc1cccc(Br)n1)c1cc(Cl)ccc1O [Compound No. 243] | 84.2 | 95.1 | –
6 | O=C(Nc1cc(C(F)(F)F)cc(C(F)(F)F)c1)c1cc(Br)c(O)cc1O [Compound No. 54] | – | 86.5 | –
7 | C#Cc1ccc(O)c(C(=O)Nc2cc(C(F)(F)F)cc(C(F)(F)F)c2)c1 [Compound No. 21] | 53.3 | 90.1 | –
8 | O=C(Nc1cc(N2CCOCC2)ccc1[N+](=O)[O-])c1cc(Cl)ccc1O [Compound No. 174] | – | 89.6 | –
9 | CN1CCN(c2sc(NC(=O)c3cc(Br)ccc3O)nc2C(C)(C)C)CC1 [Compound No. 206, 5-Bromo-N-{4-[(1,1-dimethyl)ethyl]-5-(4-methylpiperazin-1-yl)thiazol-2-yl)-2-hydroxybenzamide] | – | – | inhibition at 1 µg/mL [4]: 36.3%; inhibition at 10 µg/mL [5]: 89.6%
10 | COc1ccc(C(N)=O)cc1NC(=O)c1cc(Cl)ccc1O [Compound No. 163] | 92.1 | 97.4 | –
11 | CC(C)(C)c1nc(NC(=O)c2cc(Br)ccc2O)sc1N1CCOCC1 [Compound No. 205, 5-Bromo-N-{4-[(1,1-dimethyl)ethyl]-5-morpholinothiazol-2-yl}-2-hydroxybenzamide] | – | – | inhibition at 1 µg/mL [4]: 87.8%; inhibition at 10 µg/mL [5]: 96.8%
12 | O=C(Nc1cc(Cl)cc(Cl)c1)c1cc(I)ccc1O [Compound No. 127] | 85.4 | 97.1 | –
13 | Cc1ccc(O)c(C(=O)Nc2cc(C(F)(F)F)cc(C(F)(F)F)c2)c1 [compound 10] | 95.8 | 99.4 | –
14 | Cc1ccc(O)c(C(=O)Nc2cc(C(F)(F)F)ccc2C(F)(F)F)c1 [Compound No. 84] | 92.6 | 96.6 | –
15 | O=C(Nc1cc(C(F)(F)F)cc(C(F)(F)F)c1)c1cc(Cl)cnc1O [Compound No. 75] | 58.1 | 82.2 | –
16 | O=C(Nc1ccccc1C(F)(F)F)c1cc(Cl)ccc1O [drawing 562, reference compound] | – | – | inhibition at 0.1 µg/mL [1]: -18.4%; inhibition at 1 µg/mL [2]: 41.6%; inhibition at 10 µg/mL [3]: 92.9%
17 | O=C(Nc1cc(C(F)(F)F)cc(C(F)(F)F)c1)c1ccccc1O [compound 2] | 93.3 | 95.6 | –
18 | O=C(O)Cc1sc(NC(=O)c2cc(Br)ccc2O)nc1-c1ccccc1 [Compound No. 210] | – | 72.1 | –
19 | O=C(Nc1cc(C(F)(F)F)cc(C(F)(F)F)c1)c1cccc(O)c1O [Compound No. 57] | – | 91.9 | –
20 | O=C(Nc1cc(C(F)(F)F)cc(C(F)(F)F)c1)c1c(O)cccc1O [Compound No. 52] | 96.4 | 97.3 | –
21 | O=C(Nc1cc(C(F)(F)F)cc(C(F)(F)F)c1)c1cc(N=Nc2ccc([N+](=O)[O-])cc2)ccc1O [Compound No. 48] | 96.2 | 98.7 | –
